Measurements: publication PMC5190008, “BO-1055, a novel DNA cross-linking agent with remarkable low myelotoxicity shows potent activity in sarcoma models” (Oncotarget, 2016)

Experiments:
[1] = tested on: A673, H526 and U20S cells; test: Immunoblot analyses of DNA damage repair proteins; type: cell-based, human; conditions: 2μM, 6h and 24h
Method: Protein concentrations were determined using the BCA kit (Pierce Biotechnology, Rockford, IL) according to the manufacturer's instructions. Protein lysates (20-100 μg) were electrophoretically resolved by SDS/PAGE, transferred to nitrocellulose membrane, and probed with the indicated primary antibodies: Phospho-ATM (Ser1981) (D6H9) from rabbit (1:500, 5883, Cell Signaling, Danvers, MA), Phospho-BRCA1 (Ser1524) from rabbit (1:500, 9009, Cell Signaling), DNA-PK from rabbit (1:500, 4602, Cell Signaling), Mre11 (31H4) from rabbit (1:500, 4847, Cell Signaling) and Rad50 from rabbit (1:500, 3427, Cell Signaling). Membranes were then incubated with a 1:5,000 dilution of a peroxidase conjugated corresponding secondary antibody. Equal loading of the protein samples was confirmed by parallel western blots for β-actin (1:5,000, ab822750; Abcam). Detection was performed using the ECL-Enhanced Chemiluminescence Detection System (GE Healthcare Biosciences, Pittsburgh, PA) according to the manufacturer's instructions. Blots were visualized by autoradiography.

A673 xenografts = A673 xenografts in NSG mice; type: in vivo; conditions: 10mg/kg
Method: All mouse experiments were performed at the animal core facility at MSKCC under an approved protocol following the IACUC guidelines. Five to seven-week-old NOD/SCID IL2R gamma null (NSG) mice (bred at the Mouse Genetics Core Facility, MSKCC) were used for in vivo experiments. All mouse experiments were done following the IACUC guidelines at the animal facility at MSKCC. Tumors were induced using 10^6 A673 cells or A204 cells in 0.2ml 1:1 cellular medium, Matrigel matrix (BD Bioscience, Bedford, MA) and injected subcutaneously (s.q) into the right flank. The tumors were measured every 3 d with a caliper, and the diameters were recorded. Tumor volume was calculated by the formula a^2 b/2 where ‘a’ is the smallest and ‘b’ is the largest diameter. When the tumors reached 100mm^3, we randomized mice into control and drug treatment groups. Treatment groups received BO-1055 by tail vein injection at 10mg/kg, 20mg/kg and 30mg/kg q2d x 5 doses for mice bearing A673 xenografts. BO-1055 was given at 30mg/kg q2d x 5 doses for mice bearing A204 xenografts. De-identified patient tumor tissues were obtained in accordance with and approval from the MSKCC Institutional Review Board (IRB). Appropriate written consent and assent were obtained from the patients prior to sample collection. Patient derived xenografts were developed in NSG mice (second passage) from a patient with relapsed Ewing sarcoma, who was treated with two alkylating agents- cyclophosphamide and ifosfamide as part of a multi-agent chemotherapy prior to relapse. When the tumors reached 100mm^2, we randomized mice into control and drug treatment groups. Mice in the control groups received PBS injections while mice in the drug treatment group received the maximum tolerated dose (MTD) of cyclophosphamide 70mg/kg i.p. q2d x 3 (shown by shorter arrows) (Figure 5D). Tumor growth was not inhibited in the cyclophosphamide treated mice. When the tumors reached a size greater than 500mm^3, we started treatment with BO-1055 at a dose of 30mg/kg i.v. q2d x 4 doses (shown by longer arrows in Figure 4F). […]

[2] = tested on: caspase 3/7 in A673 cells; test: Caspase 3/7 activity (ApoTox-Glo Triplex Assay); type: cell-based, human; conditions: A673, 48h and 72h, concentration dependent
Method: A673 cells were plated at a density of 5 × 10^3 cells/well in 96 well plates. At 48h and 72h post drug exposure, 100μl of Caspase-Glo 3/7 reagent provided in the ApoTox -Glo Triplex Assay (Promega, USA) was added as per the protocol and the luminescence, which indicates caspase activation, was measured using the Synergy H1 hybrid microplate reader.

A673 cells = test: Comet assay; type: cell-based, human; conditions: A673, 3h
Method: We used comet assay, which includes single cell gel electrophoresis to assess DNA breaks when exposed to radiation or DNA damaging agents. […] Olive moment (micrometers), a product of tail DNA% and the distance between the centroids of head and tail, is an accurate parameter of DNA damage. […] Gamma-H2AX (γH2AX) phosphorylation is the initial step in DNA damage response following double stranded breaks and is responsible for recruiting DNA repair proteins.
Comet assay was performed according to the protocol described earlier. […] The cells in agarose were transferred to slides coated with normal melting point agarose. The agarose-immobilized cells were lysed in alkaline solution and the agarose trapped DNA was electrophoresed. DNA was stained with ethidium bromide and image acquisition was done immediately. DNA damage quantification was performed using OpenComet v1.3, an open-source software plugin in Image J 1.47v software (NIH, USA) for automated analysis. Olive moment, which is the product of tail DNA% and the distance between the intensity-weighted centroids of head and tail was taken from the output for analysis.

[3] = 20mg/kg and 30mg/kg/dose q2d x 5

## CN(C)CCNC(=O)c1cccc(NC(=O)Nc2ccc(N(CCCl)CCCl)cc2)c1 [BO-1055]
[1]; A673, H526 and U20S
  pATM: activation of pATM
[1]; U20S
  pBRCA1: upregulation of pBRCA1
[1]; sensitive lines (A673, H526)
  Rad50: Upregulation of Rad50
A673 xenografts; [3]
  body weight: no significant decrease in body weight
  survival: prolonged survival
A673 xenografts; 20mg/kg and 30mg/kg/dose q2d x 5, tail vein
  tumor growth: inhibition of tumor growth
[2]
  caspase 3/7 activity: Activation
A673 cells
  olive moment relative to radiation (XRT, 8Gy): comparable
A673 cells; increasing concentration
  comet tail size (DNA breaks): increased tail size
